Key:
H. pylori infection = settings: patients; cited from earlier work
H. pylori (ATCC43504) = experiment: Cultivation of H. pylori in the presence or absence of cholesterol; type: cell-based, Helicobacter pylori; settings: Ham's F-12 with 0.005% cholesterol, 5 days
[1] = test system: UDP-Glc:sterol glucosyltransferase; experiment: In vitro synthesis of CGL from UDP-Glc and cholesterol by sonicated H. pylori; type: biochemical, Helicobacter pylori; settings: 5.0 mU in 100 μl reaction (50.0 mU/ml), 30° C., 3 hours
[2] = test system: Helicobacter pylori (ATCC43504); experiment: Cell growth assay of H. pylori (microbroth dilution, OD 600 nm); type: cell-based; settings: ATCC43504, Brucella broth, 96-well plate, 35° C., 15% CO2, 4 days, OD600
H. pylori = experiment: Cell motility assay (time-lapse confocal images); type: cell-based, Helicobacter pylori; settings: 31.2 mU/ml or same protein concentration, 3 days, mean±SD

## CC1(C)S[C@@H]2[C@H](NC(=O)[C@H](N)c3ccc(O)cc3)C(=O)N2[C@H]1C(=O)O [amoxicillin]
H. pylori infection
  eradication rate: less than 20%

## CC(C)CCC[C@@H](C)[C@H]1CC[C@H]2[C@@H]3CC=C4C[C@@H](O)CC[C@]4(C)[C@H]3CC[C@]12C [cholesterol]
H. pylori (ATCC43504)
  morphology: normal
  motility: good
H. pylori (ATCC43504); 35° C.
  CFU/ml: 1 × 10^8 CFU/ml

## CC[C@H]1OC(=O)[C@H](C)[C@@H](O[C@H]2C[C@@](C)(OC)[C@@H](O)[C@H](C)O2)[C@H](C)[C@@H](O[C@@H]2O[C@H](C)C[C@H](N(C)C)[C@H]2O)[C@](C)(OC)C[C@@H](C)C(=O)[C@H](C)[C@@H](O)[C@]1(C)O [clarithromycin]
H. pylori infection
  eradication rate: about 40%

## Cc1ncc([N+](=O)[O-])n1CCO [metronidazole]
H. pylori infection
  eradication rate: less than 10%

B1: CD43 free of a GlcNAcα residue: control soluble CD43 produced without α4GnT cDNA; side chain Galβ1→4GlcNAcβ1→6(Galβ1→3)GalNAcα→Ser/Thr (protein, UniProt P16150 20-253, looked up)
extracellular domain: STTAVQTPTSGEPLVSTSEPLSSKMYTTSITSDPKADSTGDQTSALPPSTSINEGSPLWTSIGASTGSPLPEPTTYQEVSIKMSSVPQETPHATSHPAVPITANSLGSHTVTGGTITTNSPETSSRTSGAPVTTAASSLETSRGTSGPPLTMATVSLETSKGTSGPPVTMATDSLETSTGTTGPPVTMTTGSLEPSSGASGPQVSSVKLSTMMSPTTSTNASTVPFRNPDENSR
modifications: extracellular domain core2 O-glycans lacking terminal GlcNAc
notes: control soluble CD43 produced without α4GnT cDNA; side chain Galβ1→4GlcNAcβ1→6(Galβ1→3)GalNAcα→Ser/Thr
[1]
  peak of CGL at m/z 571.6 in products of sonicated H. pylori: a peak of CGL was detected
[2]
  growth of H. pylori: drastic growth
H. pylori
  mean velocity of seven H. pylori: 21.1±2.6 μm/sec
H. pylori; listed as αGlcNAc (−)
  mean velocity of seven H. pylori: 21.2±2.6 μm/sec

Reference: patent publication US7871793B2, “Antimicrobial carbohydrates and methods of using same” (Burnham Institute for Medical Research, priority 2004, dated 2011)
